Assay results from ChEMBL document CHEMBL1137017, “In vitro antiviral activity and cross-resistance profile of PL-100, a novel protease inhibitor of human immunodeficiency virus type 1” (Antimicrob Agents Chemother, 2007).

Columns and labels:
Protease = Protease (Human immunodeficiency virus 1, UniProt Q9YQ12); assay: Inhibition of HIV1 protease
[1] = tested on: Human immunodeficiency virus 1; assay: Antiviral activity against wild type HIV1 NL4-3 infected in MT4 cells after 6 days by MTT assay; format: functional, organism-based; settings: Human immunodeficiency virus 1, NL4-3, MT4, 144 h
[2] = Cytotoxicity against human MT4 cells after 6 days by MTT assay; format: cell-based
Cathepsin D = Cathepsin D (Homo sapiens, UniProt P07339); assay: Inhibition of human cathepsin D
Sequence of Cathepsin D (P07339 65-162 limits assumed): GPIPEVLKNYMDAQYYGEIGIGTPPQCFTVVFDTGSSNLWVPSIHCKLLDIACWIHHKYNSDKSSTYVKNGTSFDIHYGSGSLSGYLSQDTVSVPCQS
Sequence of Cathepsin D (P07339 169-412 limits assumed): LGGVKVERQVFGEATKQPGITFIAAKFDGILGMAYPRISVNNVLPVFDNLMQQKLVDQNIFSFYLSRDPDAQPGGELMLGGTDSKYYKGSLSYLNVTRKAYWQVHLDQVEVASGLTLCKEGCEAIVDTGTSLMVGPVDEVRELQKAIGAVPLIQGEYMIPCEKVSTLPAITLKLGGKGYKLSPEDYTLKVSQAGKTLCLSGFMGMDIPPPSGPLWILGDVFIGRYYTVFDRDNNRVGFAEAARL

[3] = Inhibition of pig pepsin; parameters: species or system Sus scrofa
[4] = tested on: Human immunodeficiency virus 1; assay: Antiviral activity against wild type HIV1 NL4-3 in HEK293 cells after 48 hrs by replication-deffective luciferase reporter gene-based phenotypic assay; format: functional, organism-based; settings: Human immunodeficiency virus 1, NL4-3, HEK293, 48 h

Sequence of Protease (Q9YQ12 whole entry): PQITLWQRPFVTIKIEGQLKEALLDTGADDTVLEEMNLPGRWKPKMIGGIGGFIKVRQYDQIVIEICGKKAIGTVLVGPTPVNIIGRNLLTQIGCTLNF

Row | Compound | Ki (Protease) | EC50 [1] | CC50 at 144 h [2] | IC50 (Cathepsin D) | IC50 [3] | EC50 [4]
1 | CC(C)CN(C[C@@H](O)[C@H](Cc1ccccc1)NC(=O)O[C@H]1CCOC1)S(=O)(=O)c1ccc(N)cc1 | 0.117 nM | 51 nM | > 100000 nM | 15200 nM | 280 nM | 10.7 nM
2 | CC(C)c1nc(CN(C)C(=O)N[C@H](C(=O)N[C@@H](Cc2ccccc2)C[C@H](O)[C@H](Cc2ccccc2)NC(=O)OCc2cncs2)C(C)C)cs1 [RITONAVIR] | – | 61 nM | – | – | – | –
3 | CC(C)(C)NC(=O)[C@@H]1CN(Cc2cccnc2)CCN1C[C@@H](O)C[C@@H](Cc1ccccc1)C(=O)N[C@H]1c2ccccc2C[C@H]1O | – | 67 nM | > 100000 nM | – | – | 7.8 nM
4 | Cc1cccc(C)c1OCC(=O)N[C@@H](Cc1ccccc1)[C@@H](O)C[C@H](Cc1ccccc1)NC(=O)[C@H](C(C)C)N1CCCNC1=O [LOPINAVIR] | – | 19 nM | 28000 nM | – | – | 2.8 nM
5 | CC(C)(C)NC(=O)[C@@H]1C[C@@H]2CCCC[C@@H]2CN1C[C@@H](O)[C@H](Cc1ccccc1)NC(=O)[C@H](CC(N)=O)NC(=O)c1ccc2ccccc2n1 | – | 12 nM | 19000 nM | – | – | 1.8 nM
